Laboratory results published in patent publication US8039487B2, “Piperidine-amide derivatives” (Hoffmann-La Roche Inc., priority 2007, dated 2011).

Biological target: T1, liver carnitine palmitoyl transferase 1 (L-CPT1) (Homo sapiens, UniProt P50416)
T1 construct: made in house; host or cells: Pichia pastoris strain X-33 (crude cell-free extract)
T1 sequence (P50416 1-773): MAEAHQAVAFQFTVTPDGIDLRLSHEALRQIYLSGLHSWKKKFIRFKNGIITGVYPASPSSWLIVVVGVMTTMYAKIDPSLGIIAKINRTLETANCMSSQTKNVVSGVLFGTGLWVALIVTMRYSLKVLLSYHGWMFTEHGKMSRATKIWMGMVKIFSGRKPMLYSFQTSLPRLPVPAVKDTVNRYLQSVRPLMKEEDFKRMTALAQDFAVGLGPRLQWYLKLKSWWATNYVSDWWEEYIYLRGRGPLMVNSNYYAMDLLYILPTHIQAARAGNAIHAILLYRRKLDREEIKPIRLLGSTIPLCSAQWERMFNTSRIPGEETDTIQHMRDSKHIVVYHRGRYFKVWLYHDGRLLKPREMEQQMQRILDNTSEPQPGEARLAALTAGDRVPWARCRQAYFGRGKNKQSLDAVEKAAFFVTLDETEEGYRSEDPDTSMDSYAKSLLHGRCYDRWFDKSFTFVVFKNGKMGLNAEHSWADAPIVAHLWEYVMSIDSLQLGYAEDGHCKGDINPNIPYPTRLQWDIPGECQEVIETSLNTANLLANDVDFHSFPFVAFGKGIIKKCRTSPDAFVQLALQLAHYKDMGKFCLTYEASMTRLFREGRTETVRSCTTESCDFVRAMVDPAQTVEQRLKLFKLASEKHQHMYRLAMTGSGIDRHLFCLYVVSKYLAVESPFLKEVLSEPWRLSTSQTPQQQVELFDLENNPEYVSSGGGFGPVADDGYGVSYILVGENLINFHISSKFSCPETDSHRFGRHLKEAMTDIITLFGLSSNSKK
Test: L-CPT1 inhibition, spectrophotometric CPT activity assay with DTNB (Ellman's reagent)
Type: biochemical
Settings: human liver CPT1 expressed in P. pastoris, cell extracts; carnitine 500 μM, palmitoyl-CoA 80 μM, DTNB 300 μM, pH 7.4
Method: The following tests were carried out in order to determine the activity of the compounds of the present invention. Background information on the performed assays can be found in: Jackson et al., 1999, Biochem. J. 341, 483-489 and Jackson et al., 2000, J. Biol. Chem. 275, 19560-19566.
Human liver and muscle CPT1 cDNAs and rat CPT2 cDNA were subcloned in pGAPZB or pGAPZA, respectively. These plasmids were used to transform P. pastoris strain X-33 via electroporation after the preparation of electrocompetent cells. High copy number clones were selected where necessary using 0.5 or 1 mg/ml Zeocin. Cultures for activity measurements were induced for 16 h in YPD medium (1% yeast extract, 2% peptone, 2% glucose). Crude cell extracts were prepared by disrupting the cells with glass beads or French Press, depending on fermenter sizes. After centrifugation, the cell-free extracts were resuspended in cell breaking buffer (50 mM Tris, pH7.4, 100 mM KCl, 1 mM EDTA) in the presence of a protease inhibitor cocktail, before aliquoting and freezing at −20° C.
CPT activity was measured using a spectrophotometric assay using 5,5′-dithio-bis-(2-nitrobenzoic acid) (DTNB) also called Ellman's reagent. The HS-CoA released on the formation of acylcarnitine from carnitine (500 μM) and palmitoyl-CoA (80 μM) reduced DTNB (300 μM) forming 5-mercapto-(2-nitrobenzoic acid) which absorbed at 410 nm with a molar extinction coefficient of 13600 M^−1cm^−1. The assay buffer contained 120 mM KCl, 25 mM Tris, pH 7.4, 1 mM EDTA. This assay was used for the identification of selective inhibitors of the liver CPT1 isoform versus the muscle CPT1 and CPT2 isoforms.

SMILES	IC50
O=C(COc1ccccc1)N1CCCC[C@@H]1c1nc(-c2ccc(Cl)cc2)cs1 [Example 1, 1-{(R)-2-[4-(4-Chloro-phenyl)-thiazol-2-yl]-piperidin-1-yl}-2-phenoxy-ethanone]	1400 nM
O=C(COc1ccccc1)N1CCCC[C@@H]1c1nc(-c2ccccc2)cs1 [Example 2, 2-Phenoxy-1-[(R)-2-(4-phenyl-thiazol-2-yl)-piperidin-1-yl]-ethanone]	268 nM
O=C(O)c1ccc(-c2csc([C@H]3CCCCN3C(=O)COc3ccccc3)n2)cc1 [Example 3, 4-{2-[(R)-1-(2-Phenoxy-acetyl)-piperidin-2-yl]-thiazol-4-yl}-benzoic acid]	129 nM
O=C(COc1ccccc1)N1CCCC[C@@H]1c1nc(-c2ccc(OC(F)(F)F)cc2)cs1 [Example 4, 2-Phenoxy-1-{(R)-2-[4-(4-trifluoromethoxy-phenyl)-thiazol-2-yl]-piperidin-1-yl}-ethanone]	798 nM
O=C(O)c1cccc(-c2csc([C@H]3CCCCN3C(=O)COc3ccccc3)n2)c1 [Example 5, 3-{2-[(R)-1-(2-Phenoxy-acetyl)-piperidin-2-yl]-thiazol-4-yl}-benzoic acid]	33.5 nM
O=C(COc1ccccc1)N1CCCC[C@@H]1c1nc(-c2ccccn2)cs1 [Example 6, 2-Phenoxy-1-[(R)-2-(4-pyridin-2-yl-thiazol-2-yl)-piperidin-1-yl]-ethanone]	19.6 nM
O=C(COc1ccccc1)N1CCCC[C@@H]1c1nc(-c2ccc(F)c(F)c2)cs1 [Example 7, 1-{(R)-2-[4-(3,4-Difluoro-phenyl)-thiazol-2-yl]-piperidin-1-yl}-2-phenoxy-ethanone]	286 nM
O=C(COc1ccccc1)N1CCCC[C@@H]1c1nc(-c2cccnc2)cs1 [Example 8, 2-Phenoxy-1-[(R)-2-(4-pyridin-3-yl-thiazol-2-yl)-piperidin-1-yl]-ethanone]	25 nM
COc1ccc(Cl)cc1-c1csc([C@H]2CCCCN2C(=O)COc2ccccc2)n1 [Example 9, 1-{(R)-2-[4-(5-Chloro-2-methoxy-phenyl)-thiazol-2-yl]-piperidin-1-yl}-2-phenoxy-ethanone]	247 nM
O=C(COc1ccccc1)N1CCCC[C@@H]1c1nc(-c2ccncc2)cs1 [Example 10, 2-Phenoxy-1-[(R)-2-(4-pyridin-4-yl-thiazol-2-yl)-piperidin-1-yl]-ethanone]	68 nM
COc1ccccc1-c1csc([C@H]2CCCCN2C(=O)COc2ccccc2)n1 [Example 11, 1-{(R)-2-[4-(2-Methoxy-phenyl)-thiazol-2-yl]-piperidin-1-yl}-2-phenoxy-ethanone]	272 nM
CS(=O)(=O)c1ccc(-c2csc([C@H]3CCCCN3C(=O)COc3ccccc3)n2)cc1 [Example 12, 1-{(R)-2-[4-(4-Methanesulfonyl-phenyl)-thiazol-2-yl]-piperidin-1-yl}-2-phenoxy-ethanone]	141 nM
COC(=O)c1cccc(-c2csc([C@H]3CCCCN3C(=O)COc3ccccc3)n2)n1 [Example 13, 6-{2-[(R)-1-(2-Phenoxy-acetyl)-piperidin-2-yl]-thiazol-4-yl}-pyridine-2-carboxylic acid methyl ester]	42.4 nM
O=C1Cc2cc(-c3csc([C@H]4CCCCN4C(=O)COc4ccccc4)n3)ccc2N1 [Example 14, 5-{2-[(R)-1-(2-Phenoxy-acetyl)-piperidin-2-yl]-thiazol-4-yl}-1,3-dihydro-indol-2-one]	65.9 nM
CC(=O)Nc1ccc(-c2csc([C@H]3CCCCN3C(=O)COc3ccccc3)n2)cc1 [Example 15, N-(4-{2-[(R)-1-(2-Phenoxy-acetyl)-piperidin-2-yl]-thiazol-4-yl}-phenyl)-acetamide]	32.6 nM
O=C(COc1ccccc1)N1CCCC[C@@H]1c1nc(-c2ccc(O)cc2)cs1 [Example 16, 1-{(R)-2-[4-(4-Hydroxy-phenyl)-thiazol-2-yl]-piperidin-1-yl}-2-phenoxy-ethanone]	79.6 nM
O=C(COc1ccccc1)N1CCCC[C@@H]1c1nc(-c2ccc3c(c2)OCO3)cs1 [Example 17, 1-[(R)-2-(4-Benzo[1,3]dioxol-5-yl-thiazol-2-yl)-piperidin-1-yl]-2-phenoxy-ethanone]	134 nM
CN(C)c1ccc(-c2csc([C@H]3CCCCN3C(=O)COc3ccccc3)n2)cc1 [Example 18, 1-{(R)-2-[4-(4-Dimethylamino-phenyl)-thiazol-2-yl]-piperidin-1-yl}-2-phenoxy-ethanone]	420 nM
Cc1c(-c2csc([C@H]3CCCCN3C(=O)COc3ccccc3)n2)[nH]c2ccccc12 [Example 19, 1-{(R)-2-[4-(3-Methyl-1H-indol-2-yl)-thiazol-2-yl]-piperidin-1-yl}-2-phenoxy-ethanone]	330 nM
N#Cc1ccc(-c2csc([C@H]3CCCCN3C(=O)COc3ccccc3)n2)cc1 [Example 20, 4-{2-[(R)-1-(2-Phenoxy-acetyl)-piperidin-2-yl]-thiazol-4-yl}-benzonitrile]	40.5 nM
N#Cc1cccc(-c2csc([C@H]3CCCCN3C(=O)COc3ccccc3)n2)c1 [Example 21, 3-{2-[(R)-1-(2-Phenoxy-acetyl)-piperidin-2-yl]-thiazol-4-yl}-benzonitrile]	65 nM
O=C(COc1ccccc1)N1CCCC[C@@H]1c1nc(-c2ccc(Cl)nc2)cs1 [Example 22, 1-{(R)-2-[4-(6-Chloro-pyridin-3-yl)-thiazol-2-yl]-piperidin-1-yl}-2-phenoxy-ethanone]	95 nM
O=C(COc1ccccc1)N1CCCC[C@@H]1c1nc(-c2ccc(Br)s2)cs1 [Example 23, 1-{(R)-2-[4-(5-Bromo-thiophen-2-yl)-thiazol-2-yl]-piperidin-1-yl}-2-phenoxy-ethanone]	88.6 nM
CC(=O)Nc1ccc(-c2nc([C@H]3CCCCN3C(=O)COc3ccccc3)cs2)cc1 [Example 25, N-(4-{4-[(R)-1-(2-Phenoxy-acetyl)-piperidin-2-yl]-thiazol-2-yl}-phenyl)-acetamide]	164 nM
O=C(COc1ccccc1)N1CCCC[C@@H]1c1csc(-c2n[nH]c3ccccc23)n1 [Example 26, 1-{(R)-2-[2-(1H-Indazol-3-yl)-thiazol-4-yl]-piperidin-1-yl}-2-phenoxy-ethanone]	130 nM
O=C(COc1ccccc1)N1CCCC[C@@H]1c1csc(-c2ccc(C(F)(F)F)nc2)n1 [Example 27, 2-Phenoxy-1-{(R)-2-[2-(6-trifluoromethyl-pyridin-3-yl)-thiazol-4-yl]-piperidin-1-yl}-ethanone]	313 nM
O=C(COc1ccccc1)N1CCCC[C@@H]1c1csc(-c2ccc(C(F)(F)F)cn2)n1 [Example 28, 2-Phenoxy-1-{(R)-2-[2-(5-trifluoromethyl-pyridin-2-yl)-thiazol-4-yl]-piperidin-1-yl}-ethanone]	935 nM
O=C(COc1ccccc1)N1CCCC[C@@H]1c1csc(-c2cnccn2)n1 [Example 29, 2-Phenoxy-1-[(R)-2-(2-pyrazin-2-yl-thiazol-4-yl)-piperidin-1-yl]-ethanone]	224 nM
Cc1ccc(-c2nc([C@H]3CCCCN3C(=O)COc3ccccc3)cs2)cn1 [Example 30, 1-{(R)-2-[2-(6-Methyl-pyridin-3-yl)-thiazol-4-yl]-piperidin-1-yl}-2-phenoxy-ethanone]	88.7 nM
O=C(COc1ccccc1)N1CCCC[C@@H]1c1csc(-c2cccnc2)n1 [Example 31, 2-Phenoxy-1-[(R)-2-(2-pyridin-3-yl-thiazol-4-yl)-piperidin-1-yl]-ethanone]	56.2 nM
